Laboratory results published in patent US10167297B2, “Substituted pyridine compounds having herbicidal activity” (BASF SE, priority 2014, dated 2019).

Legend:
Format in all cases: in vivo
Polygonum convolvulus [1] = assay: greenhouse post-emergence herbicidal activity (use examples); details: POLCO, 0.063 kg/ha, scale 0 to 100
Excerpt: (§1) The seeds of the test plants were sown separately for each species. For the pre-emergence treatment, the active ingredients, which had been suspended or emulsified in water, were applied directly after sowing by means of finely distributing nozzles. The containers were irrigated gently to promote germination and growth and subsequently covered with transparent plastic hoods until the plants had rooted. This cover caused uniform germination of the test plants, unless this had been impaired by the active ingredients. For the post-emergence treatment, the test plants were first grown to a height of 3 to 15 cm, depending on the plant habit, and only then treated with the active ingredients which had been suspended or emulsified in water. For this purpose, the test plants were either sown directly and grown in the same containers, or they were first grown separately as seedlings and transplanted into the test containers a few days prior to treatment. Depending on the species, the plants were kept at 10-25° C. or 20-35° C., respectively. The test period extended over 2 to 4 weeks. During this time, the plants were tended, and their response to the individual treatments was evaluated. Evaluation was carried out using a scale from 0 to 100. 100 means no emergence of the plants, or complete destruction of at least the aerial moieties, and 0 means no damage, or normal course of growth. A good herbicidal activity is given at values of at least 70 and a very good herbicidal activity is given at values of at least 85. The plants used in the greenhouse experiments were of the following species: [table]

Setaria viridis [2] = assay: as above; details: SETVI, 0.063 kg/ha, scale 0 to 100
Excerpt: as §1

Stellaria media = assay: as above; details: STEME, scale 0 to 100
Excerpt: as §1

Zea mays [3] = assay: greenhouse post-emergence herbicidal activity on crop plant corn (use examples); details: ZEAMX (corn, crop plant), scale 0 to 100
Excerpt: as §1

Poa annua = assay: greenhouse post-emergence herbicidal activity (use examples); details: POAAN, 0.031 kg/ha, scale 0 to 100
Excerpt: as §1

Thlaspi arvense = assay: as above; details: THLAR, 0.031 kg/ha, scale 0 to 100
Excerpt: as §1

Setaria faberi = assay: as above; details: SETFA, scale 0 to 100
Excerpt: as §1

Amaranthus retroflexus = assay: as above; details: AMARE, 0.050 kg/ha, scale 0 to 100
Excerpt: as §1

Echinocloa crus-galli [4] = assay: as above; details: Echinochloa crus-galli, ECHCG, 0.050 kg/ha, scale 0 to 100
Excerpt: as §1

Abuthilon avicennae = assay: comparative greenhouse post-emergence herbicidal activity; details: ABUTH, 20 days, scale 0 to 100
Procedure: (§2) The herbicidal activity of the compounds I-5 (N-[2,6-dichloro-3-(8-hydroxy-6,6-dioxo-5H-thiopyrano[4,3-b]pyridin-7-yl)phenyl]-N-methyl-acetamide) and 1-19 (Methyl N-[2,6-dichloro-3-(8-hydroxy-5,5-dimethyl-6,6-dioxo-thiopyrano[4,3-b]pyridin-7-yl)phenyl]-N-methyl-carbamate) according to this invention was tested in comparison with compound I-5 disclosed on page 147 of WO 2012/084755 A1 (not of the invention). These comparative experiments were performed in greenhouse by using the following procedure:
(§3) The culture containers used were plastic flowerpots containing loamy sand with approximately 3.0% of humus as the substrate. The seeds of the test plants were sown separately for each species.
(§4) For the post-emergence treatment, the test plants were first grown to a height of 3 to 15 cm, depending on the plant habit, and only then treated with the active ingredients which had been suspended or emulsified in water using a volume of 375 I/ha and 1% of an Adjuvant. For this purpose, the test plants were either sown directly and grown in the same containers, or they were first grown separately as seedlings and transplanted into the test containers a few days prior to treatment.
(§5) Depending on the species, the plants were kept at 10-25° C. (cold season grasses) or 20-35° C. (warm season grasses), respectively.
(§6) The test period extended over 20 days. During this time, the plants were tended, and their response to the individual treatments was evaluated.
(§7) Evaluation was carried out using a scale from 0 to 100. 100 means complete destruction of at least the aerial moieties, and 0 means no damage, or normal course of growth. A good herbicidal activity is given at values of at least 70 and a very good herbicidal activity is given at values of at least 85.
(§8) The plants used in the greenhouse experiments were of the following species:
(§9) The application rates in the post-emergence treatment were 0.1, 0.05 and 0.025 kg/ha, respectively.

Ambrosia artimisifolio = assay: as above; details: AMBEL, 20 days, scale 0 to 100
Procedure: as §2, §3, §4, §5, §6, §7, §8, §9

Avena Fatua = assay: as above; details: AVEFA, 20 days, scale 0 to 100
Procedure: as §2, §3, §4, §5, §6, §7, §8, §9

Bromus steliris = assay: as above; details: BROST, 20 days, scale 0 to 100
Procedure: as §2, §3, §4, §5, §6, §7, §8, §9

Digitaria sanguine = assay: as above; details: DIGSA, 20 days, scale 0 to 100
Procedure: as §2, §3, §4, §5, §6, §7, §8, §9

Echinocloa crus-galli [5] = assay: as above; details: ECHCG, 20 days, scale 0 to 100
Procedure: as §2, §3, §4, §5, §6, §7, §8, §9

Lolium Multiflori = assay: as above; details: LOLMU, 20 days, scale 0 to 100
Procedure: as §2, §3, §4, §5, §6, §7, §8, §9

Polygonum convolvulus [6] = assay: as above; details: POLCO, 20 days, scale 0 to 100
Procedure: as §2, §3, §4, §5, §6, §7, §8, §9

Setaria viridis [7] = assay: as above; details: SETVI, 20 days, scale 0 to 100
Procedure: as §2, §3, §4, §5, §6, §7, §8, §9

Zea mays [8] = assay: comparative greenhouse post-emergence herbicidal activity on crop plant corn; details: ZEAMX (corn, crop plant), 20 days, scale 0 to 100
Procedure: as §2, §3, §4, §5, §6, §7, §8, §9

CN(C(=O)C1CC1)c1c(Cl)ccc(C2=C(O)c3ncccc3C(C)(C)S2(=O)=O)c1Cl [Compound I-9, N-[2,6-dichloro-3-(8-hydroxy-5,5-dimethyl-6,6-dioxo-thiopyrano[4,3-b]pyridin-7-yl)phenyl]-N-methyl-cyclopropanecarboxamide]
Herbicidal activity (Polygonum convolvulus [1]): 95
Herbicidal activity (Setaria viridis [2]): 95
Herbicidal activity (Stellaria media; 0.063 kg/ha): 100
plant injury at 63 g/ha (Zea mays [3]; 0.063 kg/ha): 5%

CCC(=O)N(C)c1c(Cl)ccc(C2=C(O)c3ncccc3C(C)(C)S2(=O)=O)c1Cl [Compound I-10, N-[2,6-dichloro-3-(8-hydroxy-5,5-dimethyl-6,6-dioxo-thiopyrano[4,3-b]pyridin-7-yl)phenyl]-N-methyl-propanamide]
Herbicidal activity (Poa annua): 98
Herbicidal activity (Stellaria media; 0.031 kg/ha): 100
Herbicidal activity (Thlaspi arvense): 100
plant injury at 31 g/ha (Zea mays [3]; 0.031 kg/ha): 30%

CN(C(=O)C(F)F)c1c(Cl)ccc(C2=C(O)c3ncccc3C(C)(C)S2(=O)=O)c1Cl [Compound I-18, N-[2,6-dichloro-3-(8-hydroxy-5,5-dimethyl-6,6-dioxo-thiopyrano[4,3-b]pyridin-7-yl)phenyl]-2,2-difluoro-N-methyl-acetamide]
Herbicidal activity (Setaria faberi; 0.125 kg/ha): 98
Herbicidal activity (Stellaria media; 0.125 kg/ha): 100
plant injury at 125 g/ha (Zea mays [3]; 0.125 kg/ha): 30%

COC(=O)N(C)c1c(Cl)ccc(C2=C(O)c3ncccc3C(C)(C)S2(=O)=O)c1Cl [Compound I-19, Methyl N-[2,6-dichloro-3-(8-hydroxy-5,5-dimethyl-6,6-dioxo-thiopyrano[4,3-b]pyridin-7-yl)phenyl]-N-methyl-carbamate]
Herbicidal activity (Amaranthus retroflexus): 98
pest or weed control at 50 g/ha (Echinocloa crus-galli [4]): 95%
Herbicidal activity (Setaria faberi; 0.050 kg/ha): 98
plant injury at 50 g/ha (Zea mays [3]; 0.050 kg/ha): 20%
Herbicidal activity (Abuthilon avicennae; 0.025 kg/ha): 75
Herbicidal activity (Abuthilon avicennae; 0.05 kg/ha): 85
Herbicidal activity (Abuthilon avicennae; 0.1 kg/ha): 98
Herbicidal activity (Ambrosia artimisifolio; 0.025 kg/ha): 85
Herbicidal activity (Ambrosia artimisifolio; 0.05 kg/ha): 95
Herbicidal activity (Ambrosia artimisifolio; 0.1 kg/ha): 90
Herbicidal activity (Avena Fatua; 0.025 kg/ha): 50
Herbicidal activity (Avena Fatua; 0.05 kg/ha): 80
Herbicidal activity (Avena Fatua; 0.1 kg/ha): 90
Herbicidal activity (Bromus steliris; 0.025 kg/ha): 80
Herbicidal activity (Bromus steliris; 0.05 kg/ha): 85
Herbicidal activity (Bromus steliris; 0.1 kg/ha): 95
Herbicidal activity (Digitaria sanguine; 0.025 kg/ha): 95
Herbicidal activity (Digitaria sanguine; 0.05 kg/ha): 98
Herbicidal activity (Digitaria sanguine; 0.1 kg/ha): 95
Herbicidal activity (Echinocloa crus-galli [5]; 0.025 kg/ha): 85
Herbicidal activity (Echinocloa crus-galli [5]; 0.05 kg/ha): 90
Herbicidal activity (Echinocloa crus-galli [5]; 0.1 kg/ha): 95
Herbicidal activity (Lolium Multiflori; 0.025 kg/ha): 25
Herbicidal activity (Lolium Multiflori; 0.05 kg/ha): 35
Herbicidal activity (Lolium Multiflori; 0.1 kg/ha): 75
Herbicidal activity (Polygonum convolvulus [6]; 0.025 kg/ha): 45
Herbicidal activity (Polygonum convolvulus [6]; 0.05 kg/ha): 45
Herbicidal activity (Polygonum convolvulus [6]; 0.1 kg/ha): 95
Herbicidal activity (Setaria viridis [7]; 0.025 kg/ha): 85
Herbicidal activity (Setaria viridis [7]; 0.05 kg/ha): 100
Herbicidal activity (Setaria viridis [7]; 0.1 kg/ha): 100
Herbicidal activity (Zea mays [8]; 0.025 kg/ha): 15
Herbicidal activity (Zea mays [8]; 0.05 kg/ha): 35
